Assays:
[1] = molecular target: T1, ENaC (Epithelial Sodium Channel) (Mus musculus, UniProt Q61180+Q9WU38+Q9WU39); assay: Ussing Chamber assay (short circuit current, amiloride sensitive I_SC) in M-1 cells; type: cell-based; details: Mouse kidney M-1 cells, apical application, 37° C.
T1 construct: Mouse kidney M-1 cells were cultivated in DMEM containing 5% FCS and 5 μM dexamethasone; endogenous in cells; host or cells: Mouse kidney M-1 cells
T1 sequence (Q61180 1-699): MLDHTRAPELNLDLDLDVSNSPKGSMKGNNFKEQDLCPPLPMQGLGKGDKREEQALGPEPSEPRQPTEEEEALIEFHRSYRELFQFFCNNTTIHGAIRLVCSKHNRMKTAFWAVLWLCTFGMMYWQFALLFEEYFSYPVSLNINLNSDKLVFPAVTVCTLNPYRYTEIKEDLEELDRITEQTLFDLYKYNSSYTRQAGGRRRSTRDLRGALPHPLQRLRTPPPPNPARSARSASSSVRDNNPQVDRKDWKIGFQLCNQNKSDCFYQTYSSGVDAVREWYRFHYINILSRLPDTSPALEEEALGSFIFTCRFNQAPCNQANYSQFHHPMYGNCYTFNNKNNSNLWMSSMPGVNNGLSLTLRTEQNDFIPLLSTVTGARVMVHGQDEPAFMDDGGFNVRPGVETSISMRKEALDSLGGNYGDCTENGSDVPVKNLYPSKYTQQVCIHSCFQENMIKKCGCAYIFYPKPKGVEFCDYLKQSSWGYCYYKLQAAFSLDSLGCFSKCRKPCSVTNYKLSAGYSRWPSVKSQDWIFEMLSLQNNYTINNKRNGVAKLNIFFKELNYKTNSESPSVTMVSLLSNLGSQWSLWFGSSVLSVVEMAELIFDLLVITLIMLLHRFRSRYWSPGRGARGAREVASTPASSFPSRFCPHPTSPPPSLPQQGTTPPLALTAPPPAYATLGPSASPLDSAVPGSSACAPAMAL
T1 sequence (Q9WU38 1-638): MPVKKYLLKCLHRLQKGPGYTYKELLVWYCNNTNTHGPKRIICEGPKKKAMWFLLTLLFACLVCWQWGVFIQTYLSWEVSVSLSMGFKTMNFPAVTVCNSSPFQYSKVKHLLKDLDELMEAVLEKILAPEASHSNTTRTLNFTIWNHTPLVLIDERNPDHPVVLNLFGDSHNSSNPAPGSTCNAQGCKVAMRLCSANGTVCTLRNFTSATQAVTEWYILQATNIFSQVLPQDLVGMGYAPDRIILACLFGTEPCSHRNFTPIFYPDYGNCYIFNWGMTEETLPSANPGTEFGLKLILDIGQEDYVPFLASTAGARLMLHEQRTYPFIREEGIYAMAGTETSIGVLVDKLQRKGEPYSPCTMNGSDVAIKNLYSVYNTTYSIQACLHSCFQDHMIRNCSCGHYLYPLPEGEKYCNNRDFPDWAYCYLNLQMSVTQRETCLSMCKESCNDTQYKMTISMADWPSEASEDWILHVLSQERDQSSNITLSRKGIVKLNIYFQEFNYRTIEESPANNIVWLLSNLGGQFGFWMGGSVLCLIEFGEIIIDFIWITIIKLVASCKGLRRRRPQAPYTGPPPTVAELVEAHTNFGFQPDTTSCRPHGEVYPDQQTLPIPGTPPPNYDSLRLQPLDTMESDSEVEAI
T1 sequence (Q9WU39 1-655): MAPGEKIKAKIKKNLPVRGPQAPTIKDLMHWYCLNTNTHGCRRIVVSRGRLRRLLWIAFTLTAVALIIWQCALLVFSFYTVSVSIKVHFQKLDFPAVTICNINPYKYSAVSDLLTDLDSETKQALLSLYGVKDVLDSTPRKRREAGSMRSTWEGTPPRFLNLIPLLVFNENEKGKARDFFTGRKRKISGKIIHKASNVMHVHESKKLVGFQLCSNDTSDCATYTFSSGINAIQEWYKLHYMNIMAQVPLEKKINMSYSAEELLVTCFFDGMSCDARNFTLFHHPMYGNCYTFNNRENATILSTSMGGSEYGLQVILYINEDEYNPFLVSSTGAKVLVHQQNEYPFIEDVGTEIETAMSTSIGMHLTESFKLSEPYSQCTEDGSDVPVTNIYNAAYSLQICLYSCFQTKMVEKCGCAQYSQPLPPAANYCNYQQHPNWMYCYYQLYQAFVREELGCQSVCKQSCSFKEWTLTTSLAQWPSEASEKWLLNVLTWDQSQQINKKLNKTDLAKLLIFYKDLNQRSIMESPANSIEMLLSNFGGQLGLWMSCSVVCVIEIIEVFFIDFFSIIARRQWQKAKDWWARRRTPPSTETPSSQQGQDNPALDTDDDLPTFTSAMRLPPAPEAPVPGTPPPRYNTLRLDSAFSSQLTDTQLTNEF
Description: The IC50 values of the example compounds given above were determined in the Ussing Chamber assay.
Ussing Chamber: Mouse kidney M-1 cells were cultivated in DMEM containing 5% FCS and 5 μM dexamethasone for 10 to 12 days on polyester transwell filters. Filters were inserted into a teflon-coated well-plate which fit into the ussing chamber system. Prior to measurement the medium of M-1 cells was replaced with Caco-2 transport buffer (Invitrogen, Germany). During measurements, the Ussing chamber temperature was kept at 37° C. Short circuit currents (I_sc) were measured in the voltage-clamp mode with the software package Lab View for data acquisition and analysis. The transepithelial electrical resistance (TEER) was determined by the application of voltage steps of ±5 mV every 5 sec. Compounds were administered at a final concentration of 3 μM or at increasing concentrations (1-3-10 μM) to the apical solution. At the end of each experiment the amiloride sensitive I_SC was measured by adding 3 μM amiloride to the apical compartment. Results are expressed as inhibition in percent of the amiloride effect or as IC50.

[2] = Permeability in CALU-3 cells; type: in vitro ADME; details: human, CALU-3 monolayers, pH 7.4, 37° C., 10 μM compound; for Papp A→B at 90 min, 10 μM: apical-to-basal; for Papp B→A at 90 min, 10 μM: basal-to-apical
Description: Permeability in CALU-3 Cells:
Permeability measurements across polarized, confluent CALU-3 cell monolayers grown on permeable filter supports are used to provide information on the potential of a compound to pass the lung epithelium. Apparent permeability coefficients (Papp) of the compounds across the CALU-3 cell monolayers are measured (pH 7.4, 37° C.) in apical-to-basal (AB) and basal-to-apical (BA) transport direction.
CALU-3 cells (1-2×10^5 cells/1 cm^2 area) are seeded on filter inserts (Costar transwell polycarbonate filters, 0.4 μm pore size) and cultured (for 10-12 days DMEM) until tight monolayers are formed. Compounds of interest are dissolved in appropriate solvent (DMSO, 10 mM stock solution). Stock solutions are diluted with HTP-4 buffer (128.13 mM NaCl, 5.36 mM KCl, 1 mM MgSO4, 1.8 mM CaCl2, 4.17 mM NaHCO3, 1.19 mM Na2HPO4×7H2O, 0.41 mM NaH2PO4×H2O, 15 mM HEPES, 20 mM glucose, 0.25% BSA, pH 7.4) to prepare the transport solutions (10 μM compound, final DMSO<=0.5%). The transport solution (TL) is applied to the apical or basolateral donor side for measuring A-B or B-A permeability (3 filter replicates), respectively. The receiver side contains the same buffer as the donor side. After 30 min of accommodation, samples are collected at the start t0=0 min and at the end of the experiment tn=90 min from the donor and at 0, 30, 60, and 90 min also from the receiver chamber. Volume removed is […] by HTP-4 buffer. The compound concentration in the samples is measured by HPLC-MS/MS or scintillation counting. The permeability coefficient (Papp) and efflux ratio are calculated according to: Papp [cm/s]=(concentration receiver [nM]*volume receiver [mL]/time interval [sec])*(1/filter area)*(1/donor concentration [nM]).

Compound | IC50 [1] | Papp A→B at 90 min, 10 μM [2] | Papp B→A at 90 min, 10 μM [2]
CC[n+]1c(CNC(=O)c2nc(Cl)c(N)nc2N)n(CCO)c2cc(OCC(=O)NCCC[n+]3cccc([O-])c3)ccc21.O=C([O-])C(F)(F)F [Example 1.01] | 2 nM | 0.04 ×10⁻⁶ cm/s | 0.06 ×10⁻⁶ cm/s
CC[n+]1c(CNC(=O)c2nc(Cl)c(N)nc2N)n(C[C@H](C)O)c2cc(N(C)C)c(C(=O)N3CCN(C(=O)OC(C)(C)C)CC3)cc21.O=C([O-])C(F)(F)F [Example 1.02] | 25 nM | 0.08 ×10⁻⁶ cm/s | 0.1 ×10⁻⁶ cm/s
CC[n+]1c(CNC(=O)c2nc(Cl)c(N)nc2N)n(C[C@H](C)O)c2cc(OCCN(CP(C)(C)=O)C(=O)CC(C)C)ccc21.O=C([O-])C(F)(F)F [Example 1.05] | 1 nM | 0.1 ×10⁻⁶ cm/s | 0.01 ×10⁻⁶ cm/s
CC[n+]1c(CNC(=O)c2nc(Cl)c(N)nc2N)n(CC2CC2)c2cc(OCC(=O)N(C)Cc3nc(C)ccc3O)ccc21 [Example 1.08] | 1 nM | 0.08 ×10⁻⁶ cm/s | 0.2 ×10⁻⁶ cm/s
CC[n+]1c(CNC(=O)c2nc(Cl)c(N)nc2N)n(CC2CCCCC2)c2cc(OCCOP(=O)(O)CCC[N+](C)(C)C)ccc21 [Example 1.12] | 8 nM | 0.1 ×10⁻⁶ cm/s | 0.04 ×10⁻⁶ cm/s
CCCCCCN(C)C(=O)c1cc2c(cc1O[C@H]1COC[C@@H]1O)n(CCO)c(CNC(=O)c1nc(Cl)c(N)nc1N)[n+]2CC.O=C([O-])C(F)(F)F [Example 1.15] | 8 nM | 0.2 ×10⁻⁶ cm/s | 0.08 ×10⁻⁶ cm/s
CCn1c(CNC(=O)c2nc(Cl)c(N)nc2N)[n+](CC)c2ccc(OCC(=O)N(Cc3nc(C)ccc3O)C[C@H](C)O)cc21.O=C([O-])C(F)(F)F [Example 3.05] | 2 nM | 0.2 ×10⁻⁶ cm/s | 0.3 ×10⁻⁶ cm/s
CCn1c(CNC(=O)c2nc(Cl)c(N)nc2N)[n+](CC)c2ccc(C(=O)NCCN(C)C)cc21.Cl.[Cl-] [Example 3.06] | 1 nM | 0.02 ×10⁻⁶ cm/s | 0.03 ×10⁻⁶ cm/s
CCNC(=O)c1cc2c(cc1OCC(=O)NCCN(C)C)n(CC)c(CNC(=O)c1nc(Cl)c(N)nc1N)[n+]2CC.Cl.[Cl-] [Example 3.17] | 15 nM | 0.08 ×10⁻⁶ cm/s | 0.08 ×10⁻⁶ cm/s
CCOc1cc2c(cc1C(=O)N1CCN(C(=O)c3cncc(O)c3)CC1)[n+](CC)c(CNC(=O)c1nc(Cl)c(N)nc1N)n2CC [Example 4.16] | 2 nM |  | 
CC[n+]1c(CNC(=O)c2nc(Cl)c(N)nc2N)n(C[C@H](C)O)c2cc(N(C)C)c(C(=O)N3CCN(C(=O)c4cncc(O)c4)CC3)cc21 [Example 4.17] | 23 nM |  | 
CCCCCOc1cc2c(cc1C(=O)N1CCN(C(=O)c3cncc(O)c3)CC1)[n+](CC)c(CNC(=O)c1nc(Cl)c(N)nc1N)n2C[C@H](C)O [Example 4.18] | 19 nM |  | 
CCn1c(CNC(=O)c2nc(Cl)c(N)nc2N)[n+](CC)c2cc(C(=O)O)c(N3CCOCC3)cc21 [Example 6.01] | 14 nM |  | 
CCNC(=O)COc1cc2c(cc1C(=O)NC1CCNCC1)[n+](CC)c(CNC(=O)c1nc(Cl)c(N)nc1N)n2CC [Example 6.03] | 8 nM |  | 
CCn1c(CNC(=O)c2nc(Cl)c(N)nc2N)[n+](CC)c2ccc(OCCNC(=O)C3CCCN3)cc21 (stereo not shown) [Example 6.04] | 0.4 nM |  | 
CCn1c(CNC(=O)c2nc(Cl)c(N)nc2N)[n+](CC)c2ccc(OCCNC(=O)CN3CCC(N)CC3)cc21 [Example 6.05] | 1 nM |  | 
CCn1c(CNC(=O)c2nc(Cl)c(N)nc2N)[n+](CC)c2cc(C(=O)NC3CCNCC3)c(F)cc21 [Example 6.06] | 0.4 nM |  | 
CCn1c(CNC(=O)c2nc(Cl)c(N)nc2N)[n+](CC)c2ccc(OCCNC(=O)[C@H](C)N)cc21 [Example 6.07] | 0.4 nM |  | 
CCNC(=O)c1cc2c(cc1OCC(=O)NC1CCNCC1)n(CC)c(CNC(=O)c1nc(Cl)c(N)nc1N)[n+]2CC [Example 6.08] | 1 nM |  | 
CCNC(=O)c1cc2c(cc1OCC(=O)O)n(CC)c(CNC(=O)c1nc(Cl)c(N)nc1N)[n+]2CC [Example 7.01] | 38 nM |  | 
CCn1c(CNC(=O)c2nc(Cl)c(N)nc2N)[n+](CC)c2cc(C(=O)NC3CCNCC3)c(OCC(=O)O)cc21 [Example 7.02] | 29 nM |  | 
CC[n+]1c(CNC(=O)c2nc(Cl)c(N)nc2N)n(C[C@H](C)O)c2cc(N(C)C)c(C(=O)N3CCNCC3)cc21 [Example 8.01] | 6 nM |  | 
CCOc1cc2c(cc1C(=O)N1CCNCC1)[n+](CC)c(CNC(=O)c1nc(Cl)c(N)nc1N)n2CC [Example 8.02] | 1 nM |  | 
CCCCCOc1cc2c(cc1C(=O)N1CCNCC1)[n+](CC)c(CNC(=O)c1nc(Cl)c(N)nc1N)n2C[C@H](C)O [Example 8.03] | 8 nM |  | 
CCn1c(CNC(=O)c2nc(Cl)c(N)nc2N)[n+](CC)c2cc(C(=O)NC3CCN(C(=O)OC(C)(C)C)CC3)c(OCC(=O)O)cc21 [Example 9.01] | 9 nM |  | 
